Experimental data as given in article PMC12227259, “PubChem BioAssays 1063: A Poorly Exploited Source of New Antileishmanial Compounds” (Journal of Parasitology Research, 2025).
Where two headings read alike, the source gives them in different places.

Experiments:
[1] = tested on: L. mexicana promastigotes; assay: Growth inhibition assay of promastigotes (pNPP); type: cell-based, Leishmania (Leishmania) mexicana MNYC/BZ/62/M379; conditions: Leishmania mexicana; 48 h at 26°C, pNPP readout; read-out: Promastigotes (IC50 ± SD) L. mexicana
Source text: (§1) Leishmania (Leishmania) amazonensis MHOM/BR/77/LTB0016 reference strain was kindly donated by the Department of Immunology of Fundação Oswaldo Cruz (Fiocruz), Brazil. Leishmania (Leishmania) mexicana MNYC/BZ/62/M379 and L. major MHOM/IL/81/Friedlin reference strains were kindly donated by Paul A. Bates, Division of Biomedical and Life Sciences, Faculty of Health and Medicine, Lancaster University, United Kingdom. Leishmania (Leishmania) infantum MHOM/FR/78/LEM75 was kindly donated by the Department of Parasitology, Faculty of Pharmacy, Universidad Complutense de Madrid, Spain. The promastigotes were cultivated at 26°C in Medium 199 (Gibco, Grand Island, NY, United States) supplemented with 10% heat-inactivated (56°C, 30 min) fetal bovine serum (Gibco, Grand Island, NY, United States) and antibiotics (200 IU penicillin and 200 μg/mL streptomycin). Exponential multiplication of the promastigotes of the four species was attained by passages every 3–4 days. L. mexicana axenic amastigotes were cultured in Schneider's Insect Medium (Sigma-Aldrich, St. Louis, MO, United States) at pH 5.4, supplemented with 20% heat-inactivated fetal bovine serum and antibiotics (as above).
(§2) The growth inhibition assay of promastigotes was conducted according to Bodley et al.'s procedure, with minor modifications. Briefly, 96-well culture plates were seeded with 100 μL culture medium 199 containing 5 × 10^5 log-phase promastigotes and 100 μL of twofold serial dilutions of the test compounds in culture medium. The plates were sealed with parafilm and incubated for 48 h at 26°C. Negative control wells contained promastigotes and DMSO at 0.5%, and positive wells contained promastigotes and 2.7 μM amphotericin B deoxycholate (Gibco, Grand Island, NY, United States). A series of amphotericin B concentrations was also tested in parallel to estimate its IC50 against promastigotes of the three Leishmania strains. After the incubation period, 30 μL of 3 mg/mL p-nitro-phenyl-phosphate (pNPP) (Sigma-Aldrich) in sodium acetate (pH 5.5, Sigma-Aldrich) and 1% Triton X-100 (Sigma-Aldrich) were added to each well. Plates were incubated for other 3 h at 37°C, and 50 μL 0.25 M NaOH (Sigma-Aldrich) was added to change all the produced p-nitro-phenol to its yellow-colored form. Absorbance was then read in a Biotek Epoch microplate reader (Agilent, Santa Clara, CA, United States) at 405 nm. Half-maximal inhibitory concentrations (IC50) were estimated by nonlinear fitting of absorbance versus compound concentration to the sigmoid Emax equation [18]. Each drug concentration was tested in quadruplicate, and the assay was repeated three times.

[2] = tested on: L. infantum promastigotes; assay: Growth inhibition assay of promastigotes (pNPP); type: cell-based, Leishmania (Leishmania) infantum MHOM/FR/78/LEM75; conditions: Leishmania infantum; 48 h at 26°C, pNPP readout; read-out: Promastigotes (IC50 ± SD) L. infantum
Source text: as §1, §2

L. major promastigotes = assay: Growth inhibition assay of promastigotes (pNPP); type: cell-based, L. major MHOM/IL/81/Friedlin; conditions: Leishmania major; 48 h at 26°C, pNPP readout; read-out: Promastigotes (IC50 ± SD) L. major
Source text: as §1, §2

[3] = tested on: L. amazonensis promastigotes; assay: Growth inhibition assay of promastigotes (pNPP); type: cell-based, Leishmania (Leishmania) amazonensis MHOM/BR/77/LTB0016; conditions: Leishmania amazonensis; 48 h at 26°C, pNPP readout; read-out: Promastigotes (IC50 ± SD) L. amazonensis
Source text: as §1, §2

[4] = Cytotoxicity, alamar blue; type: cell-based, BALB/c mice; conditions: BALB/c, primary mouse peritoneal macrophages, read-out: Cytotoxicity (CC50 ± SD)
Procedure: The cytotoxicity of the test compounds was assessed in primary cultures of mouse peritoneal macrophages as reported elsewhere, with minor modifications. Briefly, BALB/c mice were sacrificed by CO2 inhalation, and their peritoneal macrophages were collected by washing the abdominal cavity with cold RPMI 1640 (Gibco, Paisley, Scotland, United Kingdom) culture medium supplemented with antibiotics (sodium penicillin 200 IU and streptomycin 200 μg/mL) and 10% fetal bovine serum. The macrophages were distributed in 96-well culture plates at 10^5 cells/well. After 4 h incubation at 37°C and 5% CO2, the culture medium was replaced by fresh medium containing the test compounds, and the plates were incubated for another 48 h. Afterwards, 20 μL alamar blue (Thermo Fisher Scientific, Oregon, United States) was added per well. Incubation was continued for another 6–8 h at 37°C and 5% CO2 to measure the fluorescence of the reduced dye in a plate reader (excitation: 485 nm, emission: 590, scaling factor: 10/10, Fluoroskan Ascent FL 2.5 plate reader—Thermo Labsystems, Waltham, MA, United States). Fifty percent cytotoxic concentrations (CC50) were estimated by nonlinear fitting to the Emax sigmoid model. Each concentration was tested in triplicate, and each compound was tested in three independent studies.

[5] = tested on: L. mexicana intracellular amastigotes; assay: Intracellular amastigote transformation and proliferation assay; type: cell-based, Leishmania (Leishmania) mexicana; conditions: for IC50: Leishmania mexicana, Peritoneal macrophage, intracellular amastigotes in mouse peritoneal macrophages, 48 h, then 72 h transformation at 26°C, read-out: L. mexicana amastigotes (IC50 ± SD)
Source text: as §1
The activity of the test compounds against L. mexicana intracellular amastigotes was carried out by the transformation and proliferation assay as reported elsewhere. Briefly, mouse peritoneal macrophages were obtained by peritoneal lavage of BALB/c mice and cultivated in RPMI 1640 medium supplemented with fetal bovine serum and antibiotics as described above. The cells were seeded in 96-well culture plates at 10^5 cells/well (100 μL) and incubated at 37°C and 5% CO2 for 2 h. Then, macrophages were infected with L. mexicana axenic amastigotes at a rate of three parasites per host cell. After overnight incubation at 37°C and 5% CO2, noninternalized amastigotes and nonadhered macrophages were removed by the elimination of the culture medium and washing with phosphate buffer solution (PBS). Fresh RPMI 1640 medium containing serial dilutions of the test compounds was then added. Amphotericin B was tested in parallel at concentrations from 1.35 to 0.021 μM. Four replicates of each drug concentration were tested in every assay. Plates were incubated for 48 h at 37°C and 5% CO2.

L. mexicana = assay: Mouse model of cutaneous leishmaniasis, intralesional treatment; type: in vivo, BALB/c mice; conditions: limiting dilution, 2 weeks after the end of treatment; p = 0.0170
Procedure: Female, 18–20 g, 8–10 weeks old BALB/c mice were supplied by the laboratory animal breeding facility of the Faculty of Medicine, National Autonomous University of México. They were maintained under controlled environmental conditions (room temperature 22°C–25°C, relative humidity 60%–65%, light cycle 12 h light–12 h dark) and were handled by qualified personnel. At the end of studies, mice were sacrificed by CO2 inhalation. The experimental protocol was approved by the Ethics in Research Committee and the Internal Committee on the Care and Use of Lab Animals (Code CICUAL 004-CIC-2019). All the experiments were conducted in accordance with the Mexican Regulation and the Institute of Laboratory Animal Research Guide for the care and use of laboratory animals.
Mice were infected by intradermal injection in the footpads with 10^7 stationary-phase L. mexicana promastigotes. Two weeks later, mice were randomly allocated in seven groups of 6–7 mice each. Four groups were treated intralesionally every 3 days (five doses) with 20 μL of any of the test compounds at 10 mg/mL in DMSO. […] The dorso-plantar thickness of the rear limbs was weekly measured from the beginning of treatment (14 days postinfection) to 2 weeks after the end of treatment. Feet were measured with a Vernier caliper, and lesion sizes were calculated by subtracting the value of the noninfected limb (left) to that of the infected one (right).
Two weeks after the end of treatment, mice were weighed, sacrificed by CO2 inhalation, and necropsied. The weights of the heart, liver, spleen, and left and right kidneys were determined. Both rear limbs were excised at the level of the tibiotarsal joint and weighed to calculate, by difference, the weight of the lesions. The number of parasites in the lesions was estimated by using the limiting dilution assay technique.

SMILES | IC50 [1] | IC50 [2] | IC50 (L. major promastigotes) | IC50 [3] | CC50 at 48 h [4] | Selectivity index [5] | IC50 [5] | Selectivity index ([5]; CC50/IC50 (in amastigotes)) | number of parasites in lesions versus controls, distribution-free multiple comparison test (L. mexicana)
C[C@@H]1[C@H](O)[C@@H](C)/C=C/C=C/C=C/C=C/C=C/C=C/C=C/[C@H](O[C@@H]2O[C@H](C)[C@@H](O)[C@H](N)[C@@H]2O)C[C@@H]2O[C@](O)(C[C@@H](O)C[C@@H](O)[C@H](O)CC[C@@H](O)C[C@@H](O)CC(=O)O[C@H]1C)C[C@H](O)[C@H]2C(=O)O [AmB, amphotericin B deoxycholate, reference compound] | 0.042 ± 0.019 µM | 0.031 ± 0.002 µM | 0.031 ± 0.008 µM | 0.031 ± 0.007 µM | 21 ± 2.1 µM | 44 | 0.48 ± 0.02 µM | – | –
OC(COc1cccc2ccccc12)CN1CCCC1 (stereo not shown) [Compound 1] | > 50 µM | 23.4 ± 9.2 µM | 42.5 ± 7.2 µM | > 50 µM | 125 ± 11 µM | – | 26.3 ± 8.2 µM | 5 | –
CCN1CCN(C(=S)c2ccc(OC)cc2)CC1 [Compound 2] | > 50 µM | > 50 µM | > 50 µM | > 50 µM | 127 ± 2.1 µM | – | > 50 µM | – | –
COc1ccc2c(c1)sc(=N)n2C [Compound 3] | > 50 µM | > 50 µM | > 50 µM | 30.6 ± 11 µM | > 257 µM | – | > 50 µM | – | –
Nc1cnn(Cc2ccccc2F)c1 [Compound 4] | 11.1 ± 8.2 µM | 23.1 ± 7.6 µM | 11.3 ± 2.2 µM | 23.7 ± 9.9 µM | 172 ± 6.9 µM | – | 8.9 ± 1.5 µM | 19 | statistically significant differences
